# Laboratory results published in US20050256132A1, “Use of ER selective NF-kB inhibitors for the treatment of sepsis” (priority 2003, published 2005).
# Where a name gives a salt, the structure may show the parent alone.
# Legend:
# ER/IL-6 = experiment: Endothelial Cell ER/IL-6 Assay, IL-6 promoter luciferase (Table 2); assay type: cell-based, human; details: Homo sapiens, HAECT1, ERα infected HAECT-1 cells, IL-1β; for Emax: read-out: IL6 luc % Efficacy; for IC50: read-out: IL6 luc IC50
# Description: T-175 flasks of 100% confluent HAECT-1 cells (immortalized human aortic endothelial cells) were washed with 8 ml of HBSS (HEPES buffered saline solution) and infected for fours hours with 6 ml of a 1:10 dilution of Ad5-wt-hERα virus (an adenovirus transfection vector that mediates CMV promoter driven expression of human ERα) in phenol red free Endothelial Cell Basal medium (Clonetics, San Diego, Calif., Catalog # CC-3129) containing 0.25% bovine serum albumin (EDM-BSA). After four hours, cells were washed with EDM-BSA and incubated overnight in the same medium. Following overnight incubation, cells were washed with EDM-BSA and infected for 2 hours with 6 ml of a 1:10 dilution of Ad5-3x(NFκB).Luc virus (Adenovirus luciferase expression vector driven by three repeats of the MHC NFκb sites 5′ to the thymidine kinase promoter) in EDM-BSA. After two hours, cells were washed and incubated at 34° C. for one hour. Cells were then washed, trypsinized, counted, and resuspended in 95% FBS/5% dimethylsulfoxide at a concentration of […], frozen as 1 or 5 ml aliquots in cryo-vials and stored at −150° C. Control (no ER infection) cells were processed as above without Ad5-wt-hERα virus infection.
# ERα infected HAECT-1 cells or control cells were thawed, diluted 42× in warm EBM-BSA, plated into 96-well plates at 0.1 ml/well and incubated for 4 hours at 34° C. Test compounds were added to the cells at 2× stocks in EBM-BSA containing 2 ng/ml IL-1β Ad6-IL-6(1250 bp).Luc virus and plates were returned to the incubator (34° C.). After […], cells were lysed with 50 μl of Promega Cell Culture Lysis reagenet for about 5 minutes at room temperature on a shaker. After lysing, 15 μl of lysate is transferred to luminometer plates for luciferase determination. Luciferase activity is evaluated using a Perkin Elmer Victor2 1420 multilabel counter. Creatine kinase was determined from the rate of increase in A340 following addition of 100 μl of CK assay reagent (Sigma catalog no. 47-10) to the remainder of the cell lysate.
# For IC50 and EC50 calculations, mean IL-6, luciferase or CK values versus log10 of the compound concentration were fitted to a four parameter logistic equation. The IC50/EC50 value, ‘Hill slope,’ upper and lower limits of the curve were iteratively estimated.
SMILES,melting point,IC50 (ER/IL-6) [µM],Emax (ER/IL-6) [%]
COc1ccccc1[C@H](c1cccc2ccccc12)[C@@](C)(C#N)C(=O)N1CCN(c2cccc3[nH]ccc23)CC1,174 to 176 °C,,
COc1ccccc1[C@H](c1cccc2ccccc12)[C@@](C)(C#N)C(=O)N1CC=C(c2ccc(Cl)cc2)CC1,118 to 122 °C,,
CC(C)(C)OC(=O)[C@@](C)(C#N)[C@H](c1ccccc1OC(F)(F)F)c1cccc2ccccc12 (racemic),150 to 153 °C,,
C[C@@](C#N)(C(=O)O)[C@H](c1ccccc1C(F)(F)F)c1cccc2ccccc12 (racemic),220 °C (dec.),,
"COC(=O)[C@@](C#N)(Cc1ccncc1)[C@H](c1ccccc1OC)c1cccc2ccccc12 (relative stereo) [Example 142, Methyl (2S*,3S*)-2-cyano-3-(2-methoxyphenyl)-3-(1-naphthyl)-2-(pyridin-4-ylmethyl)propanoate]",228 to 230 °C (dec.),0.069,103
"COC(=O)[C@@](C#N)(Cc1cccnc1)[C@H](c1ccccc1OC)c1cccc2ccccc12 (relative stereo) [Example 145, Methyl (2S*,3S*)-2-cyano-3-(2-methoxyphenyl)-3-(1-naphthyl)-2-(pyridin-3-ylmethyl)propanoate]",160 to 164.4 °C,,102
"COC(=O)[C@@](C#N)(COCc1ccccc1)[C@H](c1ccccc1OC)c1cccc2ccccc12 (relative stereo) [Example 146, Methyl (2S*,3S*)-2-[(benzyloxy)methyl]-2-cyano-3-(2-methoxyphenyl)-3-(1-naphthyl)propanoate]",132.9 to 134.4 °C,0.0055,135
"COc1ccccc1[C@H](c1cccc2ccccc12)[C@@](C)(C#N)C(=O)N1CCN(c2ccncc2)CC1 [Example 133, (2S,3S)-3-(2-methoxyphenyl)-2-methyl-3-(1-naphthyl)-2-[(4-pyridin-4-ylpiperazin-1-yl)carbonyl]propanenitrile]",142 to 144 °C,0.206,81
"COc1ccccc1[C@H](c1cccc2ccccc12)[C@@](C)(C#N)C(=O)N1CCC(N2C(=O)CCc3ccccc32)CC1 [Example 134, (2S,3S)-3-(2-methoxyphenyl)-2-methyl-3-(1-naphthyl)-2-{[4-(2-oxo-3,4-dihydroquinolin-1(2H)-yl)piperidin-1-yl]carbonyl}propanenitrile]",265 to 267 °C,0.612,85
"COc1ccccc1[C@H](c1cccc2ccccc12)[C@@](C)(C#N)C(=O)N1CC=C(c2ccc(Br)cc2)CC1 [Example 135, (2S)-3-[4-(4-bromophenyl)-3,6-dihydropyridin-1(2H)-yl]-2-[(S)-(2-methoxyphenyl)(1-naphthyl)methyl]-2-methyl-3-oxopropanenitrile]",136 to 139 °C,0.065,119
"COc1ccccc1[C@H](c1cccc2ccccc12)[C@@](C)(C#N)C(=O)N1CCN(c2cccc(C(F)(F)F)c2)CC1 [Example 136, (2S,3S)-3-(2-methoxyphenyl)-2-methyl-3-(1-naphthyl)-2-({4-[3-(trifluoromethyl)phenyl]piperazin-1-yl}carbonyl)propanenitrile]",158 to 162 °C,0.063,142
"COc1ccccc1[C@H](c1cccc2ccccc12)[C@@](C)(C#N)C(=O)N1CCC(C2CCCC(C(F)(F)F)C2)CC1 (stereo partly drawn) [Example 139, (2S,3S)-3-(2-methoxyphenyl)-2-methyl-3-(1-naphthyl)-2-({4-[3-(trifluoromethyl)cyclohexyl]piperidin-1-yl}carbonyl)propanenitrile]",160 to 165 °C,0.113,98

# More lines, main results first:
melting point,IC50 (ER/IL-6) [µM],SMILES,Emax (ER/IL-6) [%]
174 °C (dec.),,"CCN(CC)CC[C@](C#N)(C(=O)OC)[C@H](c1ccccc1OC)c1cccc2ccccc12 (relative stereo) (as salt: HCl) [Example 148, Methyl (2S*)-2-cyano-4-(diethylamino)-2-[(S*)-(2-methoxyphenyl)(1-naphthyl)methyl]butanoate]",
163 to 165.3 °C,0.018,"COC[C@](C#N)(C(=O)OC(C)(C)C)[C@H](c1ccccc1OC)c1cccc2ccccc12 (relative stereo) [Example 149, tert-Butyl (2S*,3S*)-2-cyano-2-(methoxymethyl)-3-(2-methoxyphenyl)-3-(1-naphthyl)propanoate]",102
166 to 170 °C,0.006,"COc1ccccc1[C@H](c1cccc2ccccc12)[C@](C#N)(COCc1ccccc1)C(=O)OC(C)(C)C (relative stereo) [Example 154, tert-Butyl (2S*,3S*)-2-[(benzyloxy)methyl]-2-cyano-3-(2-methoxyphenyl)-3-(1-naphthyl)propanoate]",87
192 to 193 °C,0.334,"COc1ccccc1[C@@H](c1cccc2ccccc12)[C@](C#N)(COCc1ccccc1)C(=O)N1CCN(CCCN(C)C)CC1 (relative stereo) [Example 205, (2S*)-2-[(benzyloxy)methyl]-3-{4-[3-(dimethylamino)propyl]piperazin-1-yl}-2-[(R*)-(2-methoxyphenyl)(1-naphthyl)methyl]-3-oxopropanenitrile]",58
176 to 178 °C,,"COC[C@](C#N)(C(=O)OC)[C@H](c1ccccc1OC)c1cccc2ccccc12 [Example 150, Methyl (2S,3S)-2-cyano-2-(methoxymethyl)-3-(2-methoxyphenyl)-3-(1-naphthyl)propanoate]",
193 °C (dec.),,"COC(=O)[C@@](C#N)(Cc1cccnc1)[C@H](c1ccccc1OC)c1cccc2ccccc12 [Example 156, Methyl (2S,3S)-2-cyano-3-(2-methoxyphenyl)-3-(1-naphthyl)-2-(pyridin-3-ylmethyl)propanoate]",73
163 to 165 °C,0.798,"COc1ccccc1C(c1ccnc2ccccc12)C(C)(C#N)C(=O)N1CCC(c2cccc(C(F)(F)F)c2)CC1 (stereo not drawn) [Example 161, 3-(2-Methoxyphenyl)-2-methyl-3-quinolin-4-yl-2-({4-[3-(trifluoromethyl)phenyl]piperidin-1-yl}carbonyl)propanenitrile]",122
229 to 231 °C,0.045,"COc1ccccc1[C@H](c1cccc2ccccc12)[C@@](C)(C#N)C(=O)N1CC=C(c2c[nH]c3ccccc23)CC1 [Example 182, (2S)-3-[4-(1H-indol-3-yl)-3,6-dihydropyridin-1(2H)-yl]-2-[(s)-(2-methoxyphenyl)(1-naphthyl)methyl]-2-methyl-3-oxopropanenitrile]",74
176 to 178 °C,0.445,"COc1ccccc1[C@H](c1cccc2ccccc12)[C@@](C)(C#N)C(=O)N1CCC2(CC1)C(=O)NCN2c1ccccc1 [Example 184, (2S,3S)-3-(2-methoxyphenyl)-2-methyl-3-(1-naphthyl)-2-[(4-oxo-1-phenyl-1,3,8-triazaspiro[4.5]dec-8-yl)carbonyl]propanenitrile]",88
259 °C,0.288,"COc1ccccc1[C@H](c1cccc2ccccc12)[C@@](C)(C#N)C(=O)N1CCC(c2cccc(C(F)(F)F)c2)C(O)C1 (stereo partly drawn) [Example 185, (2S)-3-{3-hydroxy-4-[3-(trifluoromethyl)phenyl]piperidin-1-yl}-2-[(S)-(2-methoxyphenyl)(1-naphthyl)methyl]-2-methyl-3-oxopropanenitrile]",116
172 to 174 °C,0.348,"COc1ccccc1[C@H](c1cccc2ccccc12)[C@@](C)(C#N)C(=O)N1CCc2[nH]c3ccc(F)cc3c2C1 [Example 189, (2S)-3-(8-fluoro-1,3,4,5-tetrahydro-2H-pyrido[4,3-b]indol-2-yl)-2-[(S)-(2-methoxyphenyl)(1-naphthyl)methyl]-2-methyl-3-oxopropanenitrile]",103
212 to 213 °C,0.113,"COc1ccccc1[C@H](c1cccc2ccccc12)[C@@](C)(C#N)C(=O)N1CCc2c([nH]c3ccccc23)C1 [Example 190, (2S,3S)-3-(2-methoxyphenyl)-2-methyl-3-(1-naphthyl)-2-(1,3,4,9-tetrahydro-2H-beta-carbolin-2-ylcarbonyl)propanenitrile]",
